# Tests used:
# purified human DHFR = molecular target: T1, purified human DHFR (Homo sapiens, UniProt P00374); assay: DHFR enzymatic inhibition assay (NADPH absorbance at 340 nm); type: biochemical; conditions: 200 nM DHFR, 137.5 μM DHF, 125 μM NADPH; n = 2; read-out: IC50
# T1 construct: made in house; host or cells: E. coli BL21 (DE3) T1R pRARE2, pNIC-Bsa4 plasmid
# T1 sequence (P00374 1-187): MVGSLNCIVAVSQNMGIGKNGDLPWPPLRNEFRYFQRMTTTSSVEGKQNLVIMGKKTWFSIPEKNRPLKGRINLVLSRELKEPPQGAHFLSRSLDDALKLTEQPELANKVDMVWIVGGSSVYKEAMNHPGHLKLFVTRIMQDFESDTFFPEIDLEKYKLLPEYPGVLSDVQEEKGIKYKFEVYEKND
# Experimental: Working stocks of each inhibitor were created so that the final concentration of DMSO in each reaction was 2% in a final reaction volume of 100 μL. […] Reactions were prepared on ice in 384-well plates. […] Consumption of NADPH by measuring absorbance at 340 nm was used to monitor the progress of the reaction. Readings were taken every 5 min for 1 h at 37 °C using a Synergy MX microplate reader (BioTek).
# Percent inhibition relative to the no-inhibitor control was determined using Equation (1). (1) % Inhibition=A340Inhibitor−A340DMSO Control/A340No DHFR−A340DMSO Control×100
# Percent inhibition data were then fit to the four-parameter logistic model (Equation (2)) in GraphPad Prism 9.4.1 to determine half-maximal inhibitory concentrations (IC50):(2) y=Bottom+Top−Bottom/1+IC50/x^Hill slope where y represents the percent inhibition, x represents the concentration of inhibitor (μM), the bottom and top represent the bottom and top plateaus, and the Hill slope represents the slope factor. Each experiment contained duplicates of each sample, and each experiment was performed 2 times (n = 2). An ordinary one-way ANOVA was used to test for statistical significance between treatments.
# MCF-7 cells = assay: Resazurin viability assay with or without folinic acid, MCF-7; type: cell-based, Human; conditions: 72 h; for Relative Viability (%) – Inhibitor + FA Treatment: MCF-7, 10 μM + 300 μg/mL folinic acid; for Relative Viability (%) – Inhibitor Alone: MCF-7, 10 μM, relative to DMSO; for Rescue of viability impairment by folinic acid: MCF-7, 10 μM ± 300 μg/mL FA
# Experimental: (§1) The incorporation and metabolism of resazurin to resorufin was used to monitor cell viability. MDA-MB-468, MCF7, and MDA-MB-231 cells were grown in 96-well plates with a total of 5000 cells per well in a total volume of 180 μL for 24 h, as described above. After 24 h of growth, cells were treated with increasing concentrations of compounds (0.0457–100 μM) for 72 h. A vehicle control was also performed. […] The volume of treatment added to each well was 20 μL. For folinic acid rescue experiments, 5000 cells were treated with 10 μM compound with or without 300 μg/mL folinic acid (Supelco). After 72 h of treatment, resazurin was added to a final concentration of 44 μM, and cells were incubated for an additional 4 h at 37 °C. The fluorescence of resorufin was monitored on a Synergy MX microplate reader (BioTek) using an excitation wavelength of 540 nm and an emission wavelength of 600 nm. Percent viability relative to the DMSO control was determined. Each treatment was performed in triplicate, and each individual experiment was repeated three times (n = 3).
# MDA-MB-231 cells = assay: Resazurin viability assay with or without folinic acid, MDA-MB-231; type: cell-based, Human; conditions: 72 h; for Relative Viability (%) – Inhibitor + FA Treatment: MDA-MB-231, 10 μM + 300 μg/mL folinic acid; for Rescue of viability impairment by folinic acid: MDA-MB-231, 10 μM ± 300 μg/mL FA; for Relative Viability (%) – Inhibitor Alone: MDA-MB-231, 10 μM, relative to DMSO
# Experimental: as §1
# MDA-MB-468 cells = assay: Resazurin viability assay with or without folinic acid, MDA-MB-468; type: cell-based, Human; conditions: 72 h; for Relative Viability (%) – Inhibitor + FA Treatment: MDA-MB-468, 10 μM + 300 μg/mL folinic acid; for Rescue of viability impairment by folinic acid: MDA-MB-468, 10 μM ± 300 μg/mL FA; for Relative Viability (%) – Inhibitor Alone: MDA-MB-468, 10 μM, relative to DMSO
# Experimental: as §1
# [1] = test system: T2, DHFR in MDA-MB-468 lysates; assay: Lysate cellular thermal shift assay (CETSA) for DHFR; type: binding, Human; conditions: 10 μM, MDA-MB-468 lysate, 45 °C for 3 min, DMSO at 37 °C = 100%
# T2 construct: reactions containing 55 μg MDA-MB-468 lysate; endogenous in cells; host or cells: MDA-MB-468
# Experimental: Trypsinized MDA-MB-468 cells were harvested by centrifugation at 200× g for 5 min and washed with PBS supplemented with EDTA-free PIC (Roche) and flash frozen for storage at −80 °C. Cells were lysed by resuspension in 60 μL PBS/PIC per 1 × 10^6 cells. Cells were lysed by three freeze-thaw cycles, where cells were frozen in an ethanol/dry ice bath for 3 min, immediately followed by incubation in a 37 °C water bath for 3 min. The insoluble fraction was removed by centrifugation at 20,000× g for 20 min at 4 °C. The supernatant containing the soluble lysate was removed and saved for subsequent steps.
# After incubation, each reaction was transferred to a 1.5 mL tube and centrifuged at 20,000× g for 20 min at 4 °C to remove the insoluble proteins. After centrifugation, 18 μL of supernatant was carefully removed from each reaction, without disturbing any pelleted aggregates, and added to 4.5 μL of 5× SDS-PAGE loading buffer. 11 μL of each reaction was loaded onto a gel in duplicate, and proteins were detected by Western blot (as described below). Resulting band densities were fit to the Boltzmann equation to determine the melting temperature (Tm):(3) y=Bottom+Top−Bottom/1+e^Tm−x/Slope
# To rescue the thermal degradation of DHFR by inhibitors, samples containing 10 μM inhibitor, 55 μg lysate, and 1% DMSO in a total volume of 28 μL in DHFR buffer were prepared in PCR tubes and incubated at room temperature for 20 min. Two DMSO-only controls were also prepared. Reactions containing inhibitors were then incubated at 45 °C for 3 min. One DMSO-only control was also heated at 45 °C for 3 min, and the other control was heated at 37 °C for 3 min. The soluble protein fraction was separated from the insoluble proteins by centrifugation, and proteins were separated by SDS-PAGE, as described above, and analyzed via Western blot, as described below. Each experiment was repeated 3 times.
# (§2) Proteins were electrophoretically separated on a 10% gel, and proteins were transferred to a methanol-activated PVDF membrane using the Trans-Blot Turbo transfer system (Bio-Rad) for 7 min at 1.3 A and 25 V in Trans-Blot Turbo transfer buffer (Bio-Rad). Membranes were blocked with 5% skim milk w/v in TBS-T (20 mM Tris, 150 mM NaCl, 0.05% Tween-20) for 1 h at room temperature. […] The horseradish peroxidase (HRP)-linked anti-mouse IgG secondary antibody (NA931, Cytiva; 1:3000) was added for 1 h at room temperature in 5% skim milk w/v in TBS-T. Signal was detected by adding Immobilon Forte Western HRP Substrate (Millipore), and chemiluminescence was captured on a Sapphire Biomolecular Imager (Azure Biosystems). Band densities were determined using ImageJ (Fiji). The band intensity of DHFR was normalized to the thermostable loading control SOD1 [22].
# [2] = test system: MDA-MB468, MDA-MB-231, and MCF-7 breast cancer cell lines; assay: Dose-response viability in breast cancer cell lines (statements not split by line); type: cell-based, Human; conditions: 0–100 μM, 72 h
# Experimental: as §1
# leukemia = test system: leukemia; design: method as in PMID 5479856, PMID 5479852, PMID 5241406; conditions: early studies in the 1970s; cited from earlier work
# DHFR in MDA-MB-468 cells = test system: T3, DHFR in MDA-MB-468 cells; assay: DHFR accumulation assay (Western blot); type: cell-based, Human; conditions: MDA-MB-468, 24 h, range 0.012–1 nM
# T3 construct: reactions containing 55 μg MDA-MB-468 lysate; endogenous in cells; host or cells: MDA-MB-468
# Experimental: Trypsinized MDA-MB-468 cells were seeded into 6-well plates at a density of 300,000 cells per 2 mL of media and allowed to adhere for 24 h. […] The final concentration of DMSO in each well was 1%. A DMSO-only control was also performed on each individual plate. Cells were then trypsinized, harvested by centrifugation at 200× g for 5 min at 4 °C, and washed once with PBS/PIC. Cell pellets were flash frozen using an ethanol/dry ice bath and stored at −80 °C prior to lysis. Each cell pellet was lysed as described above using 50 μL PBS/PIC per cell pellet. Samples were then analyzed by Western blot, as described below, using 30 μg lysate per lane. Band intensities of DHFR were normalized to the loading control SOD1 via densitometry using ImageJ (Fiji), and each DHFR band was normalized to the DMSO control. Fold-change in DHFR band intensity was plotted against inhibitor concentration (μM). Each experiment was performed two separate times as individual biological replicates (n = 2).
# as §2
smiles,measurement,setting,value
CC1(C)N=C(N)N=C(N)N1c1ccc(CCCCc2ccc(S(=O)(=O)F)cc2)cc1 [compound 123032],IC50,purified human DHFR,1170 ± 460 nM
same,Relative Viability (%) – Inhibitor + FA Treatment,MCF-7 cells,104.16 ± 6.3%
same,Relative Viability (%) – Inhibitor Alone,MCF-7 cells,81.94 ± 19.4%
same,Relative Viability (%) – Inhibitor + FA Treatment,MDA-MB-231 cells,103.45 ± 16.5%
same,Rescue of viability impairment by folinic acid,MDA-MB-231 cells,largest amplitude of rescue
same,Relative Viability (%) – Inhibitor Alone,MDA-MB-231 cells,57.55 ± 3.1%
same,Relative Viability (%) – Inhibitor + FA Treatment,MDA-MB-468 cells,66.59 ± 2.1%
same,Rescue of viability impairment by folinic acid,MDA-MB-468 cells,rescued in all but MDA-MB-468 cells
same,Relative Viability (%) – Inhibitor Alone,MDA-MB-468 cells,71.41 ± 10.0%
same,Normalized Band Density (%) of soluble DHFR,[1],greater than 100%
same,Normalized Band Density (%) of soluble DHFR,[1]; listed as NSC123032,121.24 ± 45.6%
same,Phenotypic response in viability dose-response,[2],little effect at low concentrations and cytotoxicity at higher concentrations
same,Anti-leukemic activity in vivo,leukemia,promising anti-leukemic activity in vivo
CC1(C)N=C(N)N=C(N)N1c1ccc(CCCCc2ccccc2)cc1 [compound 127153],IC50,purified human DHFR,930 ± 240 nM
same,Relative Viability (%) – Inhibitor + FA Treatment,MCF-7 cells,56.75 ± 7.9%
same,Rescue of viability impairment by folinic acid,MCF-7 cells,failed to rescue
same,Relative Viability (%) – Inhibitor Alone,MCF-7 cells,43.03 ± 13.9%
same,Relative Viability (%) – Inhibitor + FA Treatment,MDA-MB-231 cells,55.71 ± 12.7%
same,Rescue of viability impairment by folinic acid,MDA-MB-231 cells,failed to rescue
same,Relative Viability (%) – Inhibitor Alone,MDA-MB-231 cells,45.99 ± 10.6%
same,Relative Viability (%) – Inhibitor + FA Treatment,MDA-MB-468 cells,23.92 ± 7.7%
same,Rescue of viability impairment by folinic acid,MDA-MB-468 cells,failed to rescue
same,Relative Viability (%) – Inhibitor Alone,MDA-MB-468 cells,17.90 ± 7.8%
same,Normalized Band Density (%) of soluble DHFR,[1],greater than 100%
same,Normalized Band Density (%) of soluble DHFR,[1]; listed as NSC127153,100.16 ± 36.4%
same,Concentration giving notable accumulation of DHFR,DHFR in MDA-MB-468 cells,0.33 nM
same,Phenotypic response in viability dose-response,[2],induce growth arrest at low concentrations and induce cell death at higher concentrations
same,Anti-leukemic activity in vivo,leukemia,promising anti-leukemic activity in vivo
CC1(C)N=C(N)N=C(N)N1c1ccc(CCCCc2ccccc2)c(Cl)c1 [compound 128184],IC50,purified human DHFR,720 ± 240 nM
same,Relative Viability (%) – Inhibitor + FA Treatment,MCF-7 cells,48.65 ± 6.9%
same,Rescue of viability impairment by folinic acid,MCF-7 cells,failed to rescue
same,Relative Viability (%) – Inhibitor Alone,MCF-7 cells,35.94 ± 11.4%
same,Relative Viability (%) – Inhibitor + FA Treatment,MDA-MB-231 cells,53.14 ± 12.7%
same,Rescue of viability impairment by folinic acid,MDA-MB-231 cells,failed to rescue
same,Relative Viability (%) – Inhibitor Alone,MDA-MB-231 cells,42.94 ± 9.7%
same,Relative Viability (%) – Inhibitor + FA Treatment,MDA-MB-468 cells,16.09 ± 10.4%
same,Rescue of viability impairment by folinic acid,MDA-MB-468 cells,failed to rescue
same,Relative Viability (%) – Inhibitor Alone,MDA-MB-468 cells,12.35 ± 8.6%
same,Concentration giving notable accumulation of DHFR,DHFR in MDA-MB-468 cells,0.33 nM
same,Phenotypic response in viability dose-response,[2],induce growth arrest at low concentrations and induce cell death at higher concentrations
same,Anti-leukemic activity in vivo,leukemia,promising anti-leukemic activity in vivo

# — publication PMC9961069 (Metabolites, 2023)
